Source: patent US20060051316A1, “Remedy” (priority 2002, published 2006)

Columns and labels:
[1] = tested on: BMP-2 production of human osteosarcoma cell strain HuO9; experiment: Enhancing activity for BMP-2 production, enzyme immunoassay of culture medium; type: cell-based; conditions: for Enhancing Activity for BMP-2 Production: HuO9; for Enhancement of BMP-2 production (result in words): HuO9 cells
Procedure: Human osteosarcoma cell strain HuO9 was suspended in a DMEM medium (manufactured by Bio Whittaker) containing 10% fetal bovine serum (manufactured by Bio Whittaker) so as to have a concentration of 1×10^5 cells/ml. The suspension was put into a 96-well plate in an amount of 0.1 ml per well, and the cells were cultured sterilely. After the cells were cultured for 2 days, the medium was exchanged with a fresh medium. The fucoidan derived from Kjellmaniella crassifolia obtained in item (1) of Reference Example 1 was added thereto as a sample, and the cells were cultured for 48 hours. Next, the concentration of bone morphogenetic protein-2 (BMP-2) in the culture medium was measured with enzyme immunoassay method (BMP-2 Immunoassay: manufactured by GT). The enhancing activity for BMP-2 production was expressed by setting as a control one without addition of the sample, and defining the BMP-2 concentration in the cell culture medium (the amount of BMP-2 production of a cell) as 100%.

[2] = tested on: Mouse embryo derived cell strain C3H10T1/2; experiment: Induction of differentiation into osteoblasts, alkaline phosphatase activity in cells; type: cell-based; conditions: for Alkaline Phosphatase Activity: 7 days, C3H10T1/2, control = 100%, average of two experiments
Procedure: Mouse embryo derived cell strain C3H10T1/2 was suspended in a DMEM medium containing 10% fetal bovine serum so as to have a concentration of 3×10^4 cells/ml. The suspension was put into a 96-well plate in an amount of 0.1 ml per well, and the cells were cultured sterilely. After the cells were cultured for 3 days, the medium was exchanged with a fresh medium. Heparan sulfate, or the Chlorella sulfated polysaccharide fraction CSP-I or CPS-II obtained in Reference Example 4 was added thereto as a sample, and the cells were cultured for 7 days. Subsequently, differentiation of C3H10T1/2 into osteoblasts was determined using an increase of the alkaline phosphatase activity in the cells as an index. The cells were washed once with PBS. One-hundred microliters of a reaction substrate solution (100 mM diethanolamine buffer pH 10.0, 2 mM magnesium chloride, 1 mM p-nitrophenyl phosphoric acid) was added thereto, and the reaction was carried out at 37° C. for 30 minutes. Next, 100 μl of 0.2 N sodium hydroxide was added thereto to stop the reaction, and the amount of p-nitrophenol which was released was determined with an absorbance at 405 nm. The alkaline phosphatase activity when a sample was added was expressed by setting as a control one without addition of the sample, wherein the alkaline phosphatase activity of the control was defined as 100%. The activity indicates an induction activity of differentiation into osteoblasts. The experiments were carried out twice, and the average value was taken.

[3] = 10 μg/ml, control = 100% (0.110 ng/ml)
[4] = 100 μg/ml, control = 100% (0.110 ng/ml)
[5] = 10 μg/ml, control = 100% (0.083 ng/ml)
[6] = 100 μg/ml, control = 100% (0.083 ng/ml carrageenans, 0.070 ng/ml low-molecular-weight heparin)
[7] = 500 μg/ml, control = 100% (0.201 ng/ml for 7-12SFd-F, 0.130 ng/ml for chondroitin sulfate B and pectic acid)
[8] = 1000 μg/ml, control = 100% (0.201 ng/ml for 7-12SFd-F, 0.130 ng/ml for chondroitin sulfate B and pectic acid)

For dextran sulfate, the “Enhancing Activity for BMP-2 Production” value [1, 3] was 2789%, the “Enhancing Activity for BMP-2 Production” value [1, 4] was 2984% and the “Enhancement of BMP-2 production (result in words)” value (from here on “Enhancement of BMP-2 production”) [1] was “enhance BMP-2 production in a concentration-dependent manner”.

With Heparan sulfate the “Alkaline Phosphatase Activity” value ([2]; 10 μg/ml) was 132.2%, the “Alkaline Phosphatase Activity” value ([2]; 100 μg/ml) was 178.0% and the “Induction of differentiation into osteoblasts (result in words)” value ([2]; C3H10T1/2 cells) was “induce differentiation into osteoblasts in a concentration-dependent manner”.

For carrageenan κ, the “Enhancing Activity for BMP-2 Production” value [1, 5] was 219.3%, the “Enhancing Activity for BMP-2 Production” value [1, 6] was 263.3% and the “Enhancement of BMP-2 production” value [1] was “enhance BMP-2 production in a concentration-dependent manner”.

low-molecular-weight heparin was tested, and the “Enhancing Activity for BMP-2 Production” value [1, 6] was 390.0%, the “Enhancing Activity for BMP-2 Production” value ([1]; 1000 μg/ml, control = 100% (0.070 ng/ml)) was 807.1% and the “Enhancement of BMP-2 production” value [1] was “enhance BMP-2 production in a concentration-dependent manner”.

For chondroitin sulfate B, the “Enhancing Activity for BMP-2 Production” value [1, 7] was 524.5%, the “Enhancing Activity for BMP-2 Production” value [1, 8] was 846.2% and the “Enhancement of BMP-2 production” value [1] was “enhance BMP-2 production in a concentration-dependent manner”.

For pectic acid, the “Enhancing Activity for BMP-2 Production” value [1, 7] was 220.3%, the “Enhancing Activity for BMP-2 Production” value [1, 8] was 242.1% and the “Enhancement of BMP-2 production” value [1] was “enhance BMP-2 production in a concentration-dependent manner”.

In the case of carrageenan λ, the “Enhancing Activity for BMP-2 Production” value [1, 5] is reported as 359.6%, the “Enhancing Activity for BMP-2 Production” value [1, 6] is reported as 485.5% and the “Enhancement of BMP-2 production” value [1] is reported as “enhance BMP-2 production in a concentration-dependent manner”.

In the case of O=C(/C=C/c1ccc(O)c(O)c1)O[C@@H]1C[C@](O)(C(=O)O)C[C@@H](O)[C@H]1O [Chlorogenic Acid, chlorogenic acid], the “Enhancing Activity for BMP-2 Production” value ([1]; 88.6 μg/ml, control = 100% (0.041 ng/ml)) is reported as 319.5%, the “Enhancing Activity for BMP-2 Production” value ([1]; 177.2 μg/ml, control = 100% (0.041 ng/ml)) is reported as 320.4% and the “Enhancement of BMP-2 production” value [1] is reported as “enhance BMP-2 production in a concentration-dependent manner”.

In the case of carrageenan ι, the “Enhancing Activity for BMP-2 Production” value [1, 5] is reported as 201.2%, the “Enhancing Activity for BMP-2 Production” value [1, 6] is reported as 517.5% and the “Enhancement of BMP-2 production” value [1] is reported as “enhance BMP-2 production in a concentration-dependent manner”.

heparin was tested, and the “Enhancing Activity for BMP-2 Production” value [1, 3] was 435.1%, the “Enhancing Activity for BMP-2 Production” value [1, 4] was 1339% and the “Enhancement of BMP-2 production” value [1] was “enhance BMP-2 production in a concentration-dependent manner”.
